Columns and labels:
[1] = tested on: rat brain A1 and A2 receptors; settings: rat brain adenosine receptors, radioligand binding; cited from earlier work
[2] = tested on: ventricular cells cultured from chick embryos; test: Hypoxia-induced injury / preconditioning of cultured ventricular cells (% cells killed, CK released); assay type: cell-based; settings: for Ability to replace preconditioning hypoxia (protection against injury by ninety-minute hypoxia; % cells killed, CK released): agent given for 5 min in place of preconditioning hypoxia, before 90-min hypoxia, adenosine 10 μM, R-PIA 10 μM; for Ability to replace preconditioning hypoxia (protection against injury by ninety-minute hypoxia; % cells killed, CK released) / Effect on protection by preconditioning hypoxia (% cells killed, CK released): CGS21680 1 μM; for Effect on protection by preconditioning hypoxia (% cells killed, CK released): agent present during five-minute preconditioning hypoxia, CSC 1 μM, 8-SPT 100 μM, isoproterenol 0.3 μM, forskolin 1 μM, BayK 8644 0.1 μM; for EC (maximal effect): Gallus gallus, agonist replacing preconditioning hypoxia, read-out: Concentration giving maximal preconditioning effect
Protocol: Ventricular cells were cultured from chick embryos 14 days in ovo, according to a previously described procedure (20, 27). Cells were plated at a density of 400,000 cells per ml and cultivated in a humidified 5% CO2 -95% air mixture at 37° C. […] For preconditioning studies, the medium was changed to a HEPES-buffered medium containing (mM) 139 NaCl, 4.7 KCl, 0.5 MgCl2, 0.9 CaCl2, 5 HEPES (N-2-hydroxyethylpiperazine-N'-2-ethanesulfonic acid) and 2% fetal bovine serum, pH=7.4, 37° C. before exposing cells to the various conditions at 37° C. Control cells were maintained in the HEPES-buffered media under room air. Hypoxia was produced by placing the cells in a hypoxic incubator (NuAire) where O2 was replaced by N2. The % O2 was monitored by both an oxygen Fyrite Gas Analyzer (Bacharach) and an oxygen analyzer (Model OX630, Engineered Systems & Designs). Preconditioning was induced by exposing the cells to five minutes of hypoxia, termed preconditioning hypoxia, prior to a second ninety-minute hypoxia. Cells not subjected to preconditioning were exposed to ninety minutes of hypoxia only (nonpreconditioned cells). The extracellular pH was similarly maintained at 7.4 by HEPES in both preconditioned and nonpreconditioned cells. Determination of basal level of cell injury was made after parallel incubation of control cells under normal % O2. For preconditioned and nonpreconditioned cells, determination of cell injury was made at the end of the ninety-minute hypoxic period.
The extent of hypoxia-induced injury to the ventricular cell was quantitatively determined by the percentages of cells killed and by the amount of creatine kinase (CK) released into the media. To quantitate the % cells killed, cells were exposed to a trypsin-EDTA Hanks' balanced salt solution for 10 minutes for detachment after the various treatment, followed by centrifugation (300 × g for 10 minutes) and resuspension in culture media for counting in a hemocytometer. Only live cells sedimented and the cells counted represented those that survived (29). None of the sedimented cells subsequently counted included trypan blue. […] There was no protein or CK in the culture media following a second 300 × g centrifugation of resuspended cells previously treated with trypsin-EDTA. […] In contrast, the trypsin-EDTA media from cells exposed to 90 minutes of hypoxia contained substantial amount of proteins (0.15±0.03 mg, n=9) and CK activity (16±3 unit/mg protein, n=8). […] Because trypsin may cause further proteolysis of proteins and CK, the amount of protein and CK retained by the damaged cells in the trypsin-EDTA media may not accurately reflect those associated with the damaged cells. In support of the notion that exposure to 90 minutes of hypoxia caused significant cell injury and loss of membrane integrity, there was also marked release of LDH (hypoxia-exposed cells, 35.5±2.7, unit/mg, n=8, ±S.E. vs. control cells, 6.1±0.4 unit/mg, n=8) and proteins (hypoxia-exposed cells, 0.15±0.03 mg, n=8 vs. control cells, 0.034±0.01 mg, n=8) from the cells incubated under prolonged hypoxia. Thus, the cell viability assay separated out the hypoxia-damaged from the control normoxia-exposed cells. […] The amount of CK was measured as enzyme activity (unit/mg), and increases in CK activity above the control level were determined. The percentage of cells killed was calculated as the number of cells obtained from the control group (representing cells not subjected to any hypoxia or drug treatment) minus the number of cells from the treatment group divided by number of cells in control group multiplied by 100%.
To investigate the role of adenosine in mediating the preconditioning effect, the ventricular cells, instead of being exposed to the brief hypoxia, were incubated with adenosine (10 μM) for 5 minutes prior to the ninety minute hypoxia. In adenosine-treated cells, media were replaced with adenosine-free media for ten minutes prior to a ninety-minute hypoxic exposure. […]

[3] = tested on: ventricular cells cultured from chick embryos; test: 45Ca uptake in cultured ventricular cells; assay type: cell-based
Protocol: Determination of ^45 Ca uptake was made according to a modification of previously described method (20). Cultures were incubated with L-(3, 4, 5-^3 H, N)-leucine (152.2 Ci/mmol) for a 24 hour prior to ^45 Ca uptake. [^3 H] leucine incorporated into the cellular protein allowed normalization of ^45 Ca content to mg cell protein. After incubation with ^45 Ca-containing medium, cells were then washed free of ^45 Ca and solubilized for 2 hours with 1% sodium dodecyl sulfate and 10 mM sodium borate and the levels of ^3 H and ^45 Ca were determined. For all data comparing the effect of different agents on ^45 Ca uptake, one-way ANOVA analysis followed by group comparison with t-test was carried out at each time point of the ^45 Ca uptake. Cyclic AMP level was determined according to a previously described radioimmunoassay (27).

Structure (SMILES): COc1cc(/C=C/c2nc3c(c(=O)n(C)c(=O)n3C)n2C)cc(OC)c1OC(C)=O [compound 36]
- A1/A2 ratio (A2a receptor selectivity ratio) [1]: 93

Structure (SMILES): Cn1c(=O)c2c(nc(/C=C/c3cccc(Cl)c3)n2C)n(C)c1=O [compound 28, 8-(3-chlorostyryl)caffeine]
- Effect on R-PIA-induced preconditioning (% cells killed, CK released) ([2]; CSC present during 5-min treatment with 10 μM R-PIA, P<0.01): enhanced the preconditioning effect
- Ability to replace preconditioning hypoxia (protection against injury by ninety-minute hypoxia; % cells killed, CK released) [2]: had no effect on the extent of injury
- Effect on protection by preconditioning hypoxia (% cells killed, CK released) [2]: increased protection

Structure (SMILES): CCNC(=O)[C@H]1O[C@@H](n2cnc3c(N)nc(NCCc4ccc(CCC(=O)O)cc4)nc32)[C@H](O)[C@@H]1O [CGS21680, 2-[4-(2-carboxyethyl)phenylethylamino]-5'-N-ethylcarboxiamidoadenosine]
- Ability to replace preconditioning hypoxia (protection against injury by ninety-minute hypoxia; % cells killed, CK released) [2]: could not
- Effect on protection by preconditioning hypoxia (% cells killed, CK released) [2]: attenuated the protection
- 45Ca uptake ([3]; after 90-second exposure to 45Ca-containing media, CGS21680 1 μM, control 4.2±0.1, ±S.D.): 5.8 ± 0.2 nmol/mg
- 45Ca uptake, CGS21680 plus nifedipine ([3]; after 90-second exposure to 45Ca, CGS21680 1 μM plus nifedipine 1 μM, control 4.2±0.1, ±S.D.): 4.4 ± 0.1 nmol/mg

Structure (SMILES): Nc1ncnc2c1ncn2[C@@H]1O[C@H](CO)[C@@H](O)[C@H]1O [Adenosine, adenosine]
- Ability to replace preconditioning hypoxia (protection against injury by ninety-minute hypoxia; % cells killed, CK released) [2]: significant attenuation of the injury

Structure (SMILES): COc1cc(/C=C/c2nc3c([nH]2)c(=O)n(C)c(=O)n3C)cc(OC)c1 [33a]
- A1/A2 ratio (A2a receptor selectivity ratio) [1]: 25

Structure (SMILES): COc1cc(/C=C/c2nc3c(c(=O)n(C)c(=O)n3C)n2C)cc(OC)c1 [33b]
- A1/A2 ratio (A2a receptor selectivity ratio) [1]: > 200

Structure (SMILES): COc1ccc(/C=C/c2nc3c(c(=O)n(C)c(=O)n3C)n2C)cc1OC [32b]
- A1/A2 ratio (A2a receptor selectivity ratio) [1]: 70

Structure (SMILES): OC[C@H]1O[C@@H](n2cnc3c(NC4CCCC4)nc(Cl)nc32)[C@H](O)[C@@H]1O [CCPA]
- EC (maximal effect) [2]: 0.1 µM
- Ability to replace preconditioning hypoxia (protection against injury by ninety-minute hypoxia; % cells killed, CK released) [2]: can replace preconditioning hypoxia and simulate preconditioning

Structure (SMILES): COC(=O)C1=C(C)NC(C)=C([N+](=O)[O-])C1c1ccccc1C(F)(F)F (stereo not shown) [BayK 8644]
- Ability to replace preconditioning hypoxia (protection against injury by ninety-minute hypoxia; % cells killed, CK released) [2]: Neither isoproterenol, forskolin nor BayK8644 had any effect on the level of protection
- Effect on protection by preconditioning hypoxia (% cells killed, CK released) [2]: caused an increase in % cells killed and amount of CK released
- Calcium influx into the cultured cells ([3]; isoproterenol 0.3 μM, forskolin 1 μM, BayK 8644 0.1 μM, data not shown): induced increased calcium influx

Structure (SMILES): COc1cc(/C=C/c2nc3c(c(=O)n(C)c(=O)n3C)n2C)cc(OC)c1OC/C=C/CNC(C)=O [compound 41]
- A1/A2 ratio (A2a receptor selectivity ratio) [1]: > 50

Structure (SMILES): CNC(=O)[C@H]1O[C@@H](n2cnc3c(NCc4cccc(I)c4)nc(Cl)nc32)[C@H](O)[C@@H]1O [C1-IB-MECA, 2-chloro-N^6-(3-iodobenzyl)adenosine-5'-N-methyluronamide]
- EC (maximal effect) [2]: 0.1 µM
- Ability to replace preconditioning hypoxia (protection against injury by ninety-minute hypoxia; % cells killed, CK released) [2]: can replace preconditioning hypoxia and simulate preconditioning

Structure (SMILES): COc1ccccc1/C=C/c1nc2c(c(=O)n(C)c(=O)n2C)n1C [17b]
- A1/A2 ratio (A2a receptor selectivity ratio) [1]: 18

Structure (SMILES): C[C@H](Cc1ccccc1)Nc1ncnc2c1ncn2[C@@H]1O[C@H](CO)[C@@H](O)[C@H]1O [R-PIA, N^6 -R-phenyl-2-propyl adenosine]
- Ability to replace preconditioning hypoxia (protection against injury by ninety-minute hypoxia; % cells killed, CK released) [2]: could substitute for preconditioning hypoxia and induce preconditioning

Structure (SMILES): Cn1c(=O)c2c(nc(/C=C/c3cccc(NC(=O)CCC(=O)O)c3)n2C)n(C)c1=O [compound 24]
- A1/A2 ratio (A2a receptor selectivity ratio) [1]: 250

Structure (SMILES): COc1cc(/C=C/c2nc3c(c(=O)n(C)c(=O)n3C)n2C)cc(OC)c1OCCCCN [compound 38]
- A1/A2 ratio (A2a receptor selectivity ratio) [1]: 36

Structure (SMILES): COc1ccc(/C=C/c2nc3c(c(=O)n(C)c(=O)n3C)n2C)cc1 [29b]
- A1/A2 ratio (A2a receptor selectivity ratio) [1]: 44

Structure (SMILES): COc1cccc(/C=C/c2nc3c(c(=O)n(C)c(=O)n3C)n2C)c1 [19b]
- A1/A2 ratio (A2a receptor selectivity ratio) [1]: 64

Structure (SMILES): C=CCn1c(=O)c2c(nc(/C=C/c3cc(OC)c(OC)c(OC)c3)n2C)n(CC=C)c1=O [compound 46]
- A1/A2 ratio (A2a receptor selectivity ratio) [1]: 13

Structure (SMILES): CC(=O)Nc1cccc(/C=C/c2nc3c(c(=O)n(C)c(=O)n3C)n2C)c1 [compound 23]
- A1/A2 ratio (A2a receptor selectivity ratio) [1]: 240

Structure (SMILES): Cn1c(=O)c2c(nc(/C=C/c3cccc(C(F)(F)F)c3)n2C)n(C)c1=O [20b]
- A1/A2 ratio (A2a receptor selectivity ratio) [1]: 25

Structure (SMILES): COc1cc(/C=C/c2nc3c(c(=O)n(C)c(=O)n3C)n2C)cc(OC)c1OCc1ccccc1 [compound 37]
- A1/A2 ratio (A2a receptor selectivity ratio) [1]: 30

Structure (SMILES): CCCn1c(=O)c2c(nc(/C=C/c3cc(OC)cc(OC)c3)n2C)n(CCC)c1=O [53b]
- A1/A2 ratio (A2a receptor selectivity ratio) [1]: 110

Structure (SMILES): Cn1c(=O)c2c(nc(/C=C/c3cccc(N)c3)n2C)n(C)c1=O [22b]
- A1/A2 ratio (A2a receptor selectivity ratio) [1]: 30

Structure (SMILES): COc1cc(/C=C/c2nc3c(c(=O)n(C)c(=O)n3C)n2C)cc(OC)c1OC/C=C/CNC(=O)OC(C)(C)C [compound 42]
- A1/A2 ratio (A2a receptor selectivity ratio) [1]: > 40

Structure (SMILES): COc1cc(/C=C/c2nc3c(c(=O)n(C)c(=O)n3C)n2C)cc(OC)c1OC/C=C/CN [compound 40]
- A1/A2 ratio (A2a receptor selectivity ratio) [1]: 28

Structure (SMILES): Cn1c(=O)c2c(nc(/C=C/c3cc(F)cc(F)c3)n2C)n(C)c1=O [34b]
- A1/A2 ratio (A2a receptor selectivity ratio) [1]: 230

Structure (SMILES): Cn1c(=O)c2c(nc(/C=C/c3cccc([N+](=O)[O-])c3)n2C)n(C)c1=O [21b]
- A1/A2 ratio (A2a receptor selectivity ratio) [1]: 11

Structure (SMILES): COc1cc(/C=C/c2nc3c(c(=O)n(C)c(=O)n3C)n2C)cc(OC)c1OCCCCNC(=O)OC(C)(C)C [compound 39]
- A1/A2 ratio (A2a receptor selectivity ratio) [1]: 42

Structure (SMILES): Cn1c(=O)c2c(nc(/C=C/c3cccc(N(C(=O)OC(C)(C)C)C(=O)OC(C)(C)C)c3)n2C)n(C)c1=O [compound 26]
- A1/A2 ratio (A2a receptor selectivity ratio) [1]: 15

Structure (SMILES): Cn1c(=O)c2c(nc(/C=C/c3cccc(NC(=O)OC(C)(C)C)c3)n2C)n(C)c1=O [compound 25]
- A1/A2 ratio (A2a receptor selectivity ratio) [1]: 30

Structure (SMILES): COc1ccc(/C=C/c2nc3c(c(=O)n(C)c(=O)n3C)n2C)c(OC)c1OC [43b]
- A1/A2 ratio (A2a receptor selectivity ratio) [1]: 34

Structure (SMILES): COc1cc(/C=C/c2nc3c(c(=O)n(C)c(=O)n3C)n2C)cc(OC)c1OC [44b]
- A1/A2 ratio (A2a receptor selectivity ratio) [1]: 70

Structure (SMILES): COc1cc(/C=C/c2nc3c(c(=O)n(C)c(=O)n3C)n2C)cc(OC)c1O [compound 35]
- A1/A2 ratio (A2a receptor selectivity ratio) [1]: 19

Structure (SMILES): Cn1c(=O)c2c(nc(/C=C/c3cccc(F)c3)n2C)n(C)c1=O [27b]
- A1/A2 ratio (A2a receptor selectivity ratio) [1]: 190
